Laboratory results reported in article PMC12559140 (Molecular Neurobiology, 2025).
Values joined by “and” are separate entries in the source; they are usually repeats but may differ in a detail not shown here. Equal values may be shown once. “Also recorded” adds a separate entry of the source. Read-outs that look alike come from different tables or passages of the source.

Columns and labels:
SH-SY5Y cells = conditions: cited from earlier work
(d)-SH-SY5Y cells [1] = experiment: Cell viability (MTT), H2O2 alone or co-treatment with H2O2 and drugs; conditions: for cell viability compared to H2O2 alone: 10 μM drug + 250 µM H2O2, 24 h
Procedure: (§1) Cells were cultured under standard conditions and used for experiments between passages 5 and 20 to maintain phenotypic consistency and avoid passage-related variability. To ensure the validity of the experimental data and avoid confounding effects, the cell line was routinely tested for Mycoplasma contamination using a PCR-based Mycoplasma detection kit (MycoFluor™ Mycoplasma Detection Kit, Thermo Fisher Scientific). […] Differentiated cells were plated at 1.0 × 10^4 cell/cm^2 confluency and treated with retinoic acid (RA) (R2625-50MG, Sigma Aldrich) at a 10 µM concentration in DMEM/F12 1% FBS for 6 days with RA pulses on every other day. The (d)-SH-SY5Y cells with acquired neuronal properties were used in our experiments involving toxin application and drug treatments.
(§2) (d)-SH-SY5Y cells were cultured in collagen-coated 96-well plates (1.0 × 10^4 cell/well). […] The appropriate dose and time for H2O2 used in our study were determined according to the findings obtained in a preliminary study. Data are expressed as a percentage of cell viability compared to control cultures.

cleaved caspase-3 = experiment: Cleaved caspase-3 ELISA in H2O2-treated cells; format: cell-based, human; conditions: 250 μM H2O2 alone (vs untreated) or with CNI (vs H2O2 alone), 24 h, n = 2
Procedure: The quantification of cleaved caspase-3 levels in cell lysates was performed using a commercially available human cleaved caspase-3 ELISA kit (E6970HU, BT Lab), according to the manufacturer’s instructions. SH-SY5Y cells were seeded in collagen-coated 6-well plates (1.0 × 10^5 cell/well) and differentiated. Cells were exposed to 250 μM H2O2 in the presence or absence of CNI compounds for 24 h. Following treatment, cells were collected, diluted with PBS, and destroyed by multiple freeze–thaw cycles, both treated and untreated. The levels of cleaved caspase-3 in the cell lysates were measured in the order recommended by the manufacturer. The BCA assay (44,132, Expedeon) was used to compare the total protein contents in treated and untreated cells.

(d)-SH-SY5Y cells [2] = experiment: Neurite analysis by microscopy (NeuronJ/ImageJ); format: cell-based, human; conditions: 250 µM H2O2 alone or with 0.1 µM drug
Procedure: SH-SY5Y cells were cultivated on collagen-coated 6-well plates at a density of 1.0 × 10^5 cells/well. Following the differentiation and treatments, microscopic examination of the cell groups was assessed using an inverted microscope (Zeiss Axio) at × 20 objective. Images were taken with multiple independent images for an individual treatment. Images were analyzed for neurite lengths and the number of homogeneous neurites per cell by NeuronJ of ImageJ software; soma size was determined by the Neurphology plugin of ImageJ [46]. Cells with cell extensions longer than twice the cell body diameter were considered neurite-bearing cells. 100 cells were counted from 10 different areas selected to determine neurite density (number of neurites per cell) and neurite length for each sample. The data were expressed as the mean ± SEM from three independent experiments.

AChE mRNA = AChE mRNA expression by qRT-PCR; format: cell-based; conditions: 250 µM H2O2 alone (vs control) or with 0.1 µM drug (vs H2O2 alone), 24 h, 2^−ΔΔCt, GAPDH
Procedure: SH-SY5Y cells were cultivated on collagen-coated 6-well plates at a density of 1.0 × 10^5 cells/well. […]. The purity and concentration of the isolated RNA were assessed by measuring absorbance at 260 nm and 280 nm. cDNA was synthesized from 1 μg of total RNA using the OneScript Plus cDNA Synthesis Kit (G236, Abmgood). Subsequent to cDNA synthesis, quantitative real-time PCR (qRT-PCR) was conducted on a Roche Light Cycler 96 real-time PCR System utilizing the SYBR Green PCR Kit BlasTaq 2X qPCR MasterMix (G891, Abmgood) according to established protocols. All amplification reactions for each sample were performed in triplicate, and the experiments were repeated at least three times. The relative mRNA expression levels were quantified using the 2^−ΔΔCt method, normalizing the data against glyceraldehyde-3-phosphate dehydrogenase (GAPDH). Primer sequences are listed as follows: GAPDH forward, 5′-[…]-3′ and reverse, 5′-[…]-3′; AChE forward, 5′-[…]-3′ and reverse, 5′-[…]-3′.

AChE [3] = target: T1, AChE (Homo sapiens, UniProt P22303); experiment: Cellular AChE activity (ELISA); format: cell-based; design: To extract the total protein from the treated (d)-SH-SY5Y cells; endogenous in cells; host or cells: differentiated SH-SY5Y (human neuroblastoma); conditions: (d)-SH-SY5Y
T1 sequence (P22303 32-614): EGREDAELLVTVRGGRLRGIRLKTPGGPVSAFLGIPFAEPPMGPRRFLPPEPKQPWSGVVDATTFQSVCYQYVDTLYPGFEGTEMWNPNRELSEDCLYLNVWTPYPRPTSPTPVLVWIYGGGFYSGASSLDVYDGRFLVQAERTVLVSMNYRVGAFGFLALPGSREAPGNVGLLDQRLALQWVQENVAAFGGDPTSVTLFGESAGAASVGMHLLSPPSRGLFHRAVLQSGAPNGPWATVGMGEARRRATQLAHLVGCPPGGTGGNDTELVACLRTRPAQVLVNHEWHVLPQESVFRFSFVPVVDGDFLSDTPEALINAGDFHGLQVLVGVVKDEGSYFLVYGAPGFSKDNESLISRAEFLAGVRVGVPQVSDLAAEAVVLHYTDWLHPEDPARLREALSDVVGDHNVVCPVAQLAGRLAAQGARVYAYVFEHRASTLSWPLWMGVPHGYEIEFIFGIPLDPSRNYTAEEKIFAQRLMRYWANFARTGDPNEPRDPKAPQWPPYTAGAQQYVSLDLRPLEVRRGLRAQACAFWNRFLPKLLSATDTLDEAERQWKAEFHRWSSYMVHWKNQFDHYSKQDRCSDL
Procedure: SH-SY5Y cells were cultivated on collagen-coated 6-well plates at a density of 1.0 × 10^5 cells/well. […] To extract the total protein from the treated (d)-SH-SY5Y cells, the cultures were rinsed twice with cold phosphate-buffered saline (PBS), followed by scraping to collect the cells. The resulting cell suspension was transferred to 1.5 mL tubes, which were then centrifuged at 10,000 × g for 5 min at 4 °C. The supernatant was carefully discarded, and the cell pellets were lysed using RIPA buffer. The total protein concentration present in the extracts was quantified using the Bicinchoninic Acid (BCA) assay. Any remaining protein was stored at − 80 °C until the time of enzymatic analysis. Relative AChE activity was determined using an equal amount of total protein and employing an Enzyme-Linked Immunosorbent Assay (ELISA) (Human AchE (Acetylcholinesterase) Kit, ELK4614-96 T), following the manufacturer’s guidelines.

AChE [4] = target: T1, AChE; experiment: biochemical
Procedure: The inhibition of AChE activity in vitro was evaluated following the methodology outlined by Ellman et al., with some modifications implemented. […] The enzyme activity was expressed as a percentage relative to a control assay conducted without any inhibitor. The percentage inhibition of AChE activity was determined by comparing the absorbance values with those of the negative control, using the following equation:
AChE inhibition % = ((A0 − A1)/A0) × 100.
In this equation, A0 represents the absorbance of the control lacking the sample, while A1 indicates the absorbance of the sample tested.
Dose–response curves were generated and analyzed using GraphPad Prism version 8.0, applying a sigmoidal dose–response model with variable slope (four-parameter logistic regression). IC50 values were derived from the fitted curves and are expressed in micromolar (µM).

(d)-SH-SY5Y cells [5] = experiment: Cell viability (MTT), drugs alone; conditions: 0.01–10 μM, (d)-SH-SY5Y, no oxidative stress
Procedure: as §1, §2

[6] = Cell viability (MTT), drugs alone; conditions: human
Procedure: as §1, §2

[7] = 0.1 μM drug + 250 µM H2O2, 24 h, vs H2O2 alone

Compound | caspase-3 levels (cleaved caspase-3) | Neurite index (neurite/cell) ((d)-SH-SY5Y cells [2]) | Neurite length ((d)-SH-SY5Y cells [2]) | AChE mRNA expression (AChE mRNA) | IC50 (AChE [4]) | viability at 24 h, 1 µM [6] | viability at 24 h, 10 µM [6] | protective effect on cell viability against H2O2 ((d)-SH-SY5Y cells [1]; [7]) | cell viability compared to H2O2 alone ((d)-SH-SY5Y cells [1]) | further results
COc1ccc2c3c1O[C@H]1C[C@@H](O)C=C[C@@]31CCN(C)C2 [Gal, Galantamine] |  |  |  |  |  |  |  |  |  | reduction in viability (SH-SY5Y cells; 1.25 mg/mL): 17%; CC50 (SH-SY5Y cells): ~5000 µM; concentrations at which cell viability remained comparable to controls (SH-SY5Y cells): up to 10 μM; concentrations with significant reductions in viability (SH-SY5Y cells): ≥ 100 µM; concentrations with no cytotoxic effect (SH-SY5Y cells; differentiated SH-SY5Y cells): up to 50 μM
OO [H2O2] | significant increase in caspase-3 levels | 0.8 ± 0.2 neurite/cell and 0.8 ± 0.2*^p=0.001 neurite/cell | 39.6 ± 6.3 μm and 39.6 ± 6.3*^p=0.001 μm | significant upregulation of AChE mRNA expression |  |  |  |  |  | average cell viability ((d)-SH-SY5Y cells [1]; 250 µM H2O2 alone, 24 h, compared to the control group): 57.8 ± 5%; increase of AChE activity compared to the control (AChE [3]; 250 μM H2O2 alone, 24 h): 1.45 fold
CC[C@@H]1/C=C(\C)C[C@H](C)C[C@H](OC)[C@H]2O[C@@](O)(C(=O)C(=O)N3CCCC[C@H]3C(=O)O[C@H](/C(C)=C/[C@@H]3CC[C@H](Cl)[C@H](OC)C3)[C@H](C)[C@@H](O)CC1=O)[C@H](C)C[C@@H]2OC [Pim, Pimecrolimus] | significantly attenuated this increase | 1.1 ± 0.3 neurite/cell | 39.8 ± 5.7 μm | significantly reduced AChE mRNA levels | 2.15 ± 0.1 µM |  |  |  |  | cytotoxicity of drug alone ((d)-SH-SY5Y cells [5]): did not show detectable cytotoxicity; protective effect on cell viability against H2O2 ((d)-SH-SY5Y cells [1]; 1 µM drug + 250 µM H2O2, 24 h): best protected cell viability
C=CC[C@@H]1/C=C(\C)C[C@H](C)C[C@H](OC)[C@H]2O[C@@](O)(C(=O)C(=O)N3CCCC[C@H]3C(=O)O[C@H](/C(C)=C/[C@@H]3CC[C@@H](O)[C@H](OC)C3)[C@H](C)[C@@H](O)CC1=O)[C@H](C)C[C@@H]2OC [Tac, Tacrolimus] | did not significantly modulate caspase-3 expression | 1.2 ± 0.1 neurite/cell | 34.5 ± 3.5 μm | significantly reduced AChE mRNA levels | 4.24 ± 0.1 µM | 55.2 ± 2.5% | 50.1 ± 2% | not statistically significant | significantly reduced cell viability | 
C=C/C=C/C[C@@H](C)[C@@H](O)[C@H]1C(=O)N[C@@H](CC)C(=O)N(C)CC(=O)N(C)[C@@H](CC(C)C)C(=O)N[C@@H](C(C)C)C(=O)N(C)[C@@H](CC(C)C)C(=O)N[C@@H](C)C(=O)N[C@H](C)C(=O)N(C)[C@@H](CC(C)C)C(=O)N(C)[C@@H](CC(C)C)C(=O)N(C)[C@@H](C(C)C)C(=O)N1C [Voc, Voclosporin] | significantly attenuated this increase | 1.3 ± 0.3^#p=0.02 neurite/cell | 45.4 ± 5.5^#p=0.04 μm | significantly reduced AChE mRNA levels |  | 75.5 ± 4.8% | 62.1 ± 3.6% | significantly increasing cell viability compared to the H2O2-only group | further decrease in cell viability; also recorded: significantly reduced cell viability | AChE inhibitory effect compared to galantamine (AChE [4]; 0.01 µM): higher AChE inhibitory effect compared to galantamine; IC50 (AChE [4]; read-out: IC50 against AChE, recombinant human AChE, Ellman method, 0.01–10 µM, four-parameter fit): 0.004 ± 0.0002 µM; AChE activity (AChE [3]; 0.1 μM drug + 250 μM H2O2, 24 h): 96.3 ± 2.3%
